These results are taken from article PMC10177380 (Cancers, 2023).

“And” between values parts separate entries of the source, which are not always exact repeats. Equal values may be shown once.

Series [1] deals with ADDP ovarian variant (cisplatin-resistant A2780 clone). The experiment in a line: MTT growth inhibition, 72 h, ADDP. It is filed as cell-based. The settings on record: for GI50: ADDP, MTT, 72 h.
The nature of series [2]: Reduction with ascorbic acid (AsA) in PBS followed by 1H-NMR and 1D-195Pt-NMR. The settings on record: estimated 100% reduction, PBS in D2O, 37 °C. It is filed as physicochemical. The method, then:
The reduction behaviour of 1–6 was probed via ^1H-NMR and 1D-^195Pt-NMR spectroscopy, as previously described (see Supplementary Materials).
The reduction behaviour of 1–6 was monitored by ^1H-NMR and 1D-^195Pt-NMR spectroscopy using previously established methods. Prior to the reduction measurements, each metal complex was dissolved with PBS in D2O only.
Based on the initial 1D-^195Pt-NMR spectra acquired (Figures S62 and S63), the structural integrity of the complexes was retained, and no signs of reduction were observed, thus also confirming that the PBS had no effect on the complexes. Subsequently, AsA was added in each solution containing the metal complex, PBS and D2O. Then, sequential ^1H-NMR experiments were undertaken for 1 h, followed by final 1D-^195Pt-NMR experiments measured within the regions of 400 and −2800 ppm (Figures S64–S75). The approximate time points for 1–6 at which an estimated 50 and 100% reduction had occurred, in the presence of AsA, as represented by T50% and T100%, are summarised in Table 8.
A sequence of 1H-NMR experiments was carried out for 1 h at 37 °C, followed by 1D-195Pt-NMR within the regions of –2800 and 400 ppm. An amount of 10 mM PBS (~7.4 pH) was transferred to a vial and reduced to dryness through rotary evaporation. AsA (~1 mg) was combined with the metal complex (~5 mg) and transferred to the vial containing the dried PBS. 600 μL of D2O was then added to the vial to dissolve the complex, AsA and the PBS together. Each reaction was followed at 37 °C until the complete reduction […]
The cell lines tested were: HT29 colon, U87 glioblastoma, MCF-7 breast, A2780 ovarian, H460 lung, A431 skin, Du145 prostate, BE2-C neuroblastoma, SJ-G2 glioblastoma, MIA pancreas, ADDP ovarian variant, and the non-tumour derived MCF10A breast line. In […]
agents were prepared in DMSO (30 mM stock solutions) and stored at −20 °C until use.
All cell lines were cultured in a humidified atmosphere 5% carbon dioxide at 37 °C. The cancer cell lines were maintained in Dulbecco’s modified Eagle’s medium (DMEM) (Trace Biosciences, Sydney, NSW, Australia) supplemented with 10% foetal bovine serum, 10 mM sodium bicarbonate penicillin (100 IU mL−1), streptomycin (100 μg mL−1) and glutamine (4 mM). The non-cancer MCF10A cell line was cultured in DMEM:F12 (1:1) cell culture media, 5% heat inactivated horse serum, supplemented with penicillin (50 IU mL−1), streptomycin (50 μg mL−1), 20 mM 4-(2-hydroxyethyl)-1-piperazineethanesulfonic acid (HEPES), L-glutamine (2 mM), epidermal growth factor (20 ng mL−1), hydrocortisone (500 ng mL−1), cholera toxin (100 ng mL−1) and insulin (10 μg mL−1). Cytotoxicity was determined by plating cells in duplicate in […] medium at a density of 2500 – 4000 cells per well in 96 well plates. On day 0 (24 h after plating) when the cells were in logarithmic growth, 100 μL of medium with or without the test agent

A further series concerns MCF7 breast. As to the kind of experiment: MTT growth inhibition, 72 h, MCF7. It is filed as cell-based. The settings on record: for GI50: MCF7, MTT, 72 h.
The next series concerns SJG2 glioblastoma. As to the kind of experiment: MTT growth inhibition, 72 h, SJG2. It is filed as cell-based.
Series [3] has as its system non-tumour derived MCF10A breast line. The experiment in a line: MTT growth inhibition, 72 h, MCF10A. It is filed as cell-based.
A further series deals with U87 glioblastoma. The experiment in a line: MTT growth inhibition, 72 h, U87. Type of series: cell-based.
A further series deals with HT29 colon cells. The experiment in a line: ROS production, DCFDA/H2DCFDA cellular ROS assay. It is filed as cell-based, human. The settings on record: treatment at GI50 concentration (TBHP positive control 20 μM). On the procedure:
To determine the presence of ROS in treated cells, a DCFDA/H2DCFDA-cellular ROS Assay Kit (Abcam, Cambridge, MA, USA) was utilised, as previously reported. The ROS potential of platinum(II) precursors and platinum(IV) scaffolds, which were determined using the same method, were also presented in this study for comparison.
Additionally, the ROS potential of the platinum(II) precursors and platinum(IV) scaffolds was determined previously and was presented here to allow for comparison (Table 10 and Figure 13). […] Treatment with the complexes and ligands was completed at each specific GI50 concentration. […]
dimethylthiazol-2-yl]-2,5-diphenyltetrazolium bromide) assay and absorbance was read at 540 nm. An eight-point dose response curve was produced from which the GI50 value was calculated, representing the drug concentration at which cell growth was inhibited by 50% based on the difference between the optical density values on day 0 and those at the end of drug exposure.
4. Reactive Oxygen Species (ROS) Potential
A total of 25,000 cells/mL of HT29 cells in DMEM were seeded in 96-well plates. Cells were washed with 1X kit buffer, and then stained with 25 μM 2’,7’-dichlorofluorescein diacetate (DCFH-DA) and incubated for 45 min. DCFH-DA was then removed, and cells were then re-washed with 1X kit buffer, after which phenol red free media was added.
Cells were then treated with a GI50 drug concentration for each complex. The plates were directly scanned to measure fluorescence (relative fluorescence units (RFU)) at different time points using the Glo-Max®-Multimode microplate reader (Promega Corporation, Alexandra, VIC, Australia) at an excitation/emission of 485/535 nm. […]

The test system of the next series is multiple cell lines. As to the kind of experiment: MTT growth inhibition, over all cell lines tested. It is filed as cell-based. The conditions noted are these: for GI50: mean over all cell lines tested, read-out: Mean GI50 Values.
The next series concerns A2780 ovarian. The experiment in a line: MTT growth inhibition, 72 h, A2780. Type of series: cell-based.
The subject of another series is HT29 colon. As to the kind of experiment: MTT growth inhibition, 72 h, HT29. It is filed as cell-based, human.
For a further series, the system named is MIA pancreas. The experiment in a line: MTT growth inhibition, 72 h, MIA. It is filed as cell-based.
In the next series the test system is A431 skin. The experiment in a line: MTT growth inhibition, 72 h, A431. It is filed as cell-based.

Take `COc1ccc2c(c1)c(CC(=O)OCC(=O)[O][Pt-2]13([OH])([NH2+][C@H]4CCCC[C@@H]4[NH2+]1)[n+]1cccc4ccc5ccc[n+]3c5c41)c(C)n2C(=O)c1ccc(Cl)cc1` [Complex 4, [Pt^IV(phen)(SS-DACH)(ACE)(OH)]^2+]: the GI50 (usually the concentration that inhibits growth by half) in series [1] worked out at 330 ± 27 nM; in the series on MCF7 breast it was 840 ± 390 nM; in the series on SJG2 glioblastoma it was 1450 ± 104 nM; in series [3] it was 360 ± 29 nM; in the series with U87 glioblastoma it was 1720 ± 140 nM; with multiple cell lines, 735 ± 58 nM. The GI50 in the series with A2780 ovarian amounted to 350 ± 47 nM; in the series on HT29 colon it was 290 ± 30 nM; in the series with MIA pancreas it was 490 ± 36 nM; in the series on A431 skin it was 930 ± 490 nM. In addition, the “Reduction Times T100%” value in series [2] is 10 to 15 min. Also, the “fold decrease of GI50 relative to the platinum(IV) scaffold” value with MCF7 breast was determined as 19 fold. Also, the “ROS Production” value was 303 ± 8 RFU in the series with HT29 colon cells (HT29, 24 h); 298 ± 17 RFU with HT29 colon cells (HT29, 48 h); 168 RFU and 168 ± 15 RFU in the series with HT29 colon cells (HT29, 72 h). Further, the “fold difference of mean GI50 compared to platinum(II) precursor” value in the series on multiple cell lines is listed as 1- to 2 fold.
In the case of `COc1ccc2c(c1)c(CC(=O)OCC(=O)[O][Pt-2]13([OH])([NH2+][C@H]4CCCC[C@@H]4[NH2+]1)[n+]1cccc4cc(C)c5ccc[n+]3c5c41)c(C)n2C(=O)c1ccc(Cl)cc1` [Complex 5, [Pt^IV(5-Mephen)(SS-DACH)(ACE)(OH)]^2+], the “fold more potent than cisplatin” value in [1] was 3000 fold. Besides, the GI50 in [1] is 9.3 ± 2 nM; with MCF7 breast it was 39 ± 18 nM; in the series on SJG2 glioblastoma, 200 ± 21 nM; in series [3], 20 ± 5 nM; in the series with U87 glioblastoma it was 140 ± 8 nM; with multiple cell lines, 70 ± 15 nM. Also, the GI50 in the series with A2780 ovarian was 30 ± 12 nM; in the series on HT29 colon, 13 ± 8 nM; in the series with MIA pancreas, 29 ± 14 nM; in the series on A431 skin it was 60 ± 45 nM. Also, the “Reduction Times T100%” value in series [2] is 10 to 15 min. Besides, the “ROS Production” value with HT29 colon cells (HT29, 24 h) was 313 ± 11 RFU; in the series with HT29 colon cells (HT29, 48 h), 305 ± 10 RFU; in the series on HT29 colon cells (HT29, 72 h) it was 192 RFU and 192 ± 7 RFU.
As to `COc1ccc2c(c1)c(CC(=O)OCC(=O)[O][Pt-2]13([OH])([NH2+][C@H]4CCCC[C@@H]4[NH2+]1)[n+]1cccc4c(C)c(C)c5ccc[n+]3c5c41)c(C)n2C(=O)c1ccc(Cl)cc1` [Complex 6, [Pt^IV(5,6-Me2phen)(SS-DACH)(ACE)(OH)]^2+], the GI50 in series [1] worked out at 1.3 ± 0.5 nM; with MCF7 breast it was 12 ± 6 nM; in the series with SJG2 glioblastoma, 130 ± 25 nM; in series [3], 3.4 ± 1 nM; in the series on U87 glioblastoma it was 28 ± 3 nM; in the series with multiple cell lines, 32 ± 7 nM. Besides, the GI50 worked out at 10 ± 4 nM in the series with A2780 ovarian, 4.7 ± 4 nM with HT29 colon, 7.8 ± 4 nM with MIA pancreas and 16 ± 12 nM in the series with A431 skin. Also, the “Reduction Times T100%” value in series [2] is given as 5 min. Also, the “ROS Production” value with HT29 colon cells (HT29, 24 h) is 344 ± 17 RFU; with HT29 colon cells (HT29, 48 h), 312 ± 13 RFU; with HT29 colon cells (HT29, 72 h), 202 RFU and 202 ± 10 RFU.
